Assay results as given in ChEMBL document CHEMBL3045983, “Ajugatakasins A and B, New Diterpenoids fromAjuga decumbens, and Feeding Stimulative Activity of Related Neoclerodane Analogs toward the Turnip Sawfly” (1997).

Columns and labels:
Type in all cases: functional
Athalia rosae ruficornis [1] = experiment: Induction of feeding in larvae of Athalia rosae ruficornis on leaves of Ajuga decumbens assessed as feeding response measured for 10 seconds relative to control; parameters: concentration or dose not given beside the values
Athalia rosae ruficornis [2] = experiment: Induction of feeding in larvae of Athalia rosae ruficornis on leaves of Ajuga decumbens assessed as feeding response at 10 ug/64 mm'2 of filter paper measured for 10 seconds
Athalia rosae ruficornis [3] = experiment: Induction of feeding in larvae of Athalia rosae ruficornis on leaves of Ajuga decumbens assessed as feeding response at 0.1 ug/64 mm'2 of filter paper measured for 10 seconds

Question: For `C/C=C(\C)C(=O)O[C@@H]1CC[C@]2(CO2)[C@]2(COC(C)=O)[C@@H](OC(C)=O)C[C@@H](C)[C@](C)(C[C@H](O)C3=CC(=O)OC3)[C@@H]12` [AJUGAMARIN A1], which Activity (Athalia rosae ruficornis [1]) is on record?
Answer: 46.3%

Question: And the Activity (Athalia rosae ruficornis [2])?
Answer: 0%

Question: And the Activity (Athalia rosae ruficornis [3])?
Answer: 0%

Question: What does the source list for `C/C=C(\C)C(=O)O[C@@H]1CC[C@]2(CO2)[C@]2(COC(C)=O)[C@@H](OC(C)=O)C[C@@H](C)[C@](C)(C[C@H](OC(=O)[C@@H](C)CC)C3=CC(=O)OC3)[C@@H]12` [AJUGAMARIN G1]?
Answer: Activity (Athalia rosae ruficornis [1]): 9.3%; Activity (Athalia rosae ruficornis [2]): 0%; Activity (Athalia rosae ruficornis [3]): 0%

Question: Which Activity (Athalia rosae ruficornis [1]) does the source give for `C/C=C(\C)C(=O)O[C@@H](C[C@@]1(C)[C@H](C)C[C@H](OC(C)=O)[C@]2(COC(C)=O)[C@@H]1[C@H](OC(=O)[C@@H](C)CC)CC[C@]21CO1)C1=CC(=O)OC1` [AJUGAMARIN H1] here?
Answer: 7%

Question: And the Activity (Athalia rosae ruficornis [2])?
Answer: 0%

Question: What about the Activity (Athalia rosae ruficornis [3]) of the same compound?
Answer: 0%

Question: `C/C=C(\C)C(=O)O[C@@H](C[C@@]1(C)[C@H](C)C[C@H](OC(C)=O)[C@]2(COC(C)=O)[C@@H]1[C@H](OC(=O)/C(C)=C/C)CC[C@]21CO1)C1=CC(=O)OC1` [AJUGATAKASIN A] was tested. Which Activity (Athalia rosae ruficornis [1]) did it give?
Answer: 28.4%

Question: And the Activity (Athalia rosae ruficornis [2])?
Answer: 0%

Question: What about the Activity (Athalia rosae ruficornis [3]) of the same compound?
Answer: 0%

Question: For `CC[C@H](C)C(=O)O[C@@H](C[C@@]1(C)[C@H](C)C[C@H](OC(C)=O)[C@]2(COC(C)=O)[C@@H]1[C@H](OC(=O)[C@@H](C)CC)CC[C@]21CO1)C1=CC(=O)OC1` [AJUGATAKASIN B], which Activity (Athalia rosae ruficornis [1]) is on record?
Answer: 0.4%

Question: And the Activity (Athalia rosae ruficornis [2])?
Answer: 0%

Question: What about the Activity (Athalia rosae ruficornis [3]) of the same compound?
Answer: 0%

Question: How did the Activity (Athalia rosae ruficornis [1]) turn out when `CC[C@H](C)C(=O)O[C@H]1[C@H](O)C[C@@H]2[C@@](C)([C@@H]3C[C@H]4C=CO[C@H]4O3)[C@H](C)C[C@H](OC(C)=O)[C@@]2(COC(C)=O)[C@@]12CO2` [CLERODENDRIN D] was run?
Answer: 0.08%

Question: What about the Activity (Athalia rosae ruficornis [2]) of the same compound?
Answer: 100%

Question: And the Activity (Athalia rosae ruficornis [3])?
Answer: 88%

Question: For `CCC(C)C(=O)O[C@@H]1CC[C@]2(CO2)[C@]2(COC(C)=O)[C@@H](OC(C)=O)C[C@@H](C)[C@](C)(C[C@H](O)C3=CC(=O)OC3)[C@@H]12` (stereo partly specified) [DIHYDROAJUGAMARIN], which Activity (Athalia rosae ruficornis [1]) is on record?
Answer: 8.6%

Question: And the Activity (Athalia rosae ruficornis [2])?
Answer: 0%

Question: What about the Activity (Athalia rosae ruficornis [3]) of the same compound?
Answer: 0%
